The results in this text go back to US7338959B2, “Diamino-pyrimidines and their use as angiogenesis inhibitors” (SmithKline Beecham Corporation, priority 2002, dated 2008).

Structures can show the parent of a compound that is named as a salt.

The target in this experiment is T1, GST-VEGFR2 (Homo sapiens, UniProt P35968).
T1 construct: baculovirus expressed recombinant constructs of the intracellular domains of human TIE2 tagged by GST; made in house
T1 sequence (P35968 786-1356 limits assumed): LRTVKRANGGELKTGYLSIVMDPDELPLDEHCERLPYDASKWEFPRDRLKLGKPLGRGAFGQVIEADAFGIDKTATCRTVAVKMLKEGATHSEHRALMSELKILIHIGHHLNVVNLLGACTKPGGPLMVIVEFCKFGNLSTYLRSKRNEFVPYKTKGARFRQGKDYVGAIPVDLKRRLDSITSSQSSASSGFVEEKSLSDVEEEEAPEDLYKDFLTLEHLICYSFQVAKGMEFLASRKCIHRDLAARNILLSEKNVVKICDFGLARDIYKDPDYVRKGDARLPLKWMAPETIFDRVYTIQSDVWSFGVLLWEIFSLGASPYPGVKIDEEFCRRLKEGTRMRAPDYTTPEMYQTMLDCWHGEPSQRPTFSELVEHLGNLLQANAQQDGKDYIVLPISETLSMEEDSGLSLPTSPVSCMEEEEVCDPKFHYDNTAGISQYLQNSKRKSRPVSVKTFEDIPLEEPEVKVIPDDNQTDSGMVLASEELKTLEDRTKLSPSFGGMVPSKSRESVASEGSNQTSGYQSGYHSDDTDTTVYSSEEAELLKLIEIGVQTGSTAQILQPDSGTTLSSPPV
Description: VEGF-R2 enzyme assay (VEGF-E), LANCE method. It is filed as biochemical. Particulars: GST-VEGFR2, 75 uM ATP, biotinylated peptide. The text has this:
VEGF-R2 Enzyme Assay (VEGF-E)
The VEGF enzyme assay used the LANCE method (Wallac) and GST-VEGFR2, baculovirus expressed recombinant constructs of the intracellular domains of human TIE2 tagged by GST. The method measured the ability of the purified enzymes to catalyse the transfer of the γ-phosphate from ATP onto tyrosine residues in a biotinylated synthetic peptide, (biotin-aminohexyl-EEEEYFELVAKKKK-NH2). This peptide phosphorylation was detected using the following procedure: GST-VEGFR2 was incubated for 40-60 mins at room temperature with 75 uM ATP, 5 mM MgCl2, 0.1 mM DTT, 0.1 mg/mL BSA and the test compound (diluted from a 10 mM stock in DMSO for desired concentration) in 100 mM HEPES buffer. The reaction was stopped by the addition of EDTA (final concentration 50 mM). Streptavidin linked-APC (allophycocyanin, Molecular Probe) and Europium-labeled anti-phosphorylated tyrosine antibody (Wallac) were then added at the final concentration of 15 nM and 1 nM, respectively. The APC signal was measured using an ARVO multilabel counter (Wallac Berthold, Japan). The percent inhibition of activity was calculated relative to blank control wells. The concentration of test compound that inhibits 50% of activity (IC50) was interpolated using nonlinear regression (Levernberg-Marquardt) and the equation, y=Vmax (1−x/(K+x))+Y2, where “K” was equal to the IC50. The IC50 values were converted to pIC50 values, i.e., −log IC50 in Molar concentration.
On the technique in general: TR-FRET usually uses a lanthanide donor and a delayed reading to cut background.
For orientation: IC50 means the concentration needed to halve the response being measured. Lower therefore signals greater potency in that assay. On to `CN(c1ccc2c(c1)nc(NCc1ccc(F)cc1)n2C)c1ccnc(Nc2cccc(S(N)(=O)=O)c2)n1` [Example 11, 3-(4-{[2-(4-Fluoro-benzylamino)-1-methyl-1H-benzoimidazol-5-yl]-methyl-amino}-pyrimidin-2-ylamino)-benzenesulfonamide hydrochloride], for which the IC50 was less than 100 nM.

For the compound `CNS(=O)(=O)CCc1ccc(Nc2nccc(N(C)c3ccc4c(c3)nc(NC(C)C)n4C)n2)cc1` [Example 90, 2-(4-{4-[(2-Isopropylamino-1-methyl-1H-benzoimidazol-5-yl)-methyl-amino]-pyrimidin-2-ylamino}-phenyl)-ethanesulfonic acid methylamide hydrochloride], the half-maximal inhibitory concentration (IC50) is less than 100 nM.

Consider `CN(c1ccc2c(c1)nc(NC(=O)Nc1ccccc1)n2C)c1ccnc(Nc2ccc(CS(C)(=O)=O)cc2)n1` [Example 142, N-(1-methyl-5-{methyl[2-({4-[(methylsulfonyl)methyl]phenyl}amino)pyrimidin-4-yl]amino}-1H-benzimidazol-2-yl)-N′-phenylurea], for which the IC50 was less than 100 nM.

Take `CN(c1ccc2c(c1)nc(NC(=O)C1CCCCC1)n2C)c1ccnc(Nc2cccc(CS(C)(=O)=O)c2)n1` [Example 157, Cyclohexanecarboxylic acid ({[2-(3-methanesulfonylmethyl-phenylamino)-pyrimidin-4-yl]-methyl-amino}-methyl-1H-benzoimidazol-2-yl)-amide]: the VEGF-E result was “+++ (+++ = pIC50 of >7.0)”.

As for `CN(c1ccc2c(c1)nc(NC(=O)Cc1ccccc1)n2C)c1ccnc(Nc2ccc(CS(C)(=O)=O)cc2)n1` [Example 202, Phenyl-N-({[2-(4-methanesulfonylmethyl-phenylamino)-pyrimidin-4-yl]-methyl-amino}-methyl-1H-benzoimidazol-2-yl)-acetamide], the IC50 was less than 100 nM.

`COc1cccc(CC(=O)Nc2nc3cc(N(C)c4ccnc(Nc5ccc(CS(C)(=O)=O)cc5)n4)ccc3n2C)c1OC` [Example 219, 2-(2,3-Dimethoxyphenyl)-N-(5-{[2-(4-methanesulfonylmethyl-phenylamino)-pyrimidin-4-yl]-methyl-amino}-1-methyl-1H-benzoimidazol-2-yl)-acetamide] registered a concentration for half-maximal inhibition (IC50) of less than 100 nM.

`CN(c1ccc2c(c1)nc(NC(=O)Cc1ccc3c(c1)OCO3)n2C)c1ccnc(Nc2ccc(CS(C)(=O)=O)cc2)n1` [Example 239, Benzo[1,3]dioxol-5-yl-N-({[2-(4-methanesulfonylmethyl-phenylamino)-pyrimidin-4-yl]-methyl-amino}-methyl-1H-benzoimidazol-2-yl)-acetamide] gave a 50% inhibitory concentration (IC50) of 100 to 1000 nM.

For the compound “N-({[2-(3-methanesulfonylmethyl-phenylamino)-pyrimidin-4-yl]-methyl-amino}-methyl-1H-benzoimidazol-2-yl)-3,5-bis-trifluoromethyl-benzamide [Example 156]”, the VEGF-E entry was “++ (++ = pIC50 of 6.0-7.0)”.
